In patent US8231887B2, “Pesticidal compositions” (BASF Corporation, priority 2008, dated 2012):
“And” between values parts separate entries of the source, which are not always exact repeats. Equal entries are not always repeated.

Columns and labels:
[1] = test system: cockroaches; assay: Topical toxicity test of alcohols and/or PD23 mineral oil, dead at 24 h (Example 10); type: in vivo, Blattella germanica
Description: (§1) Toxicity evaluations were performed on 7-14 day old adult male and female German cockroaches (SCJ Strain, S.C. Johnson & Son, Racine, Wis.). Approximately 12 cockroaches were transferred to individual 100×20 mm polystyrene Petri dishes and anesthetized with a 15-25 second exposure to carbon dioxide. The inside edge of each Petri dish was lightly coated with mineral oil plus petroleum jelly in a 1:3 (wt/wt) ratio to minimize escape. Anesthetized cockroaches were positioned with their ventral side up, and a 1 μl drop of the diluted test composition was applied to the area between the meso- and metathoracic legs using a Rainin L-10, 10 μl capacity pipette (Rainin Instrument, LLC, Oakland, Calif.). Five replications of 12 male cockroaches were done for each test composition. Separate tests were done using female cockroaches. Results were evaluated at 24 hours following treatment. Cockroaches were scored as either alive (dorsal side up, active movement when abdomen prodded with dissecting probe) or moribund/dead (dorsal side up and no movement when abdomen prodded or ventral side up and insect unable to right itself).
The compositions comprising alcohol and/or mineral oil are described in Table 13.

[2] = test system: cockroaches; assay: LD50 and LD10 of mineral oils and alcohols, dose-response mortality, probit analysis (Example 9); type: in vivo, Blattella germanica; conditions: 95% CI printed in the line below
Description: In this example, various mineral oils and alcohols were tested to determine, for cockroaches, the LD50 and LD10 for each.
PD23 and PD28 mineral oils were obtained from Sonneborn LLC, Mahwah, N.J. The physical properties of these oils are shown in Table 11. Each mineral oil was tested to determine the LD50 and LD10 (Table 12).
The tested alcohols were obtained from Sigma-Aldrich Corp., St. Louis, Mo. Each alcohol was tested to determine the LD50 and LD10 (Table 12).

[3] = test system: cockroaches; assay: 1-propanol and 1-heptanol alone and in combination with Exxsol D95 mineral oil (Example 17); type: in vivo; conditions: for # dead at 24 h / Proportion dead at 24 h: individual treatment; for synergy with EXXSOL D95: result in words
[4] = test system: cockroaches (all male); assay: Topical toxicity test of mineral oil and/or hexylene glycol, isopropyl myristate, dioxane or d-limonene in acetone (Examples 3-6); type: in vivo, Blattella germanica; conditions: 24 hours; for # dead: 1 μl topical, remainder acetone
Description: as §1, with “itself). […]” for “itself).”
(§2) Tests were generally performed as described in Example 1, except the number of cockroaches (all male) tested for each composition is set forth below in Table 6, and the compositions were not further diluted with acetone in a 1:1 (wt/wt) ratio prior to testing. The results are shown in Table 6, which lists the number of cockroaches tested for each composition, the number of dead cockroaches out of the total number of cockroaches tested, the square root percent dead cockroaches, the proportion of dead cockroaches, and the arcsine square root percent dead cockroaches.
as §2, with “7,” for “6,”

[5] = test system: cockroaches; assay: Topical toxicity test of various compounds and/or PD23 mineral oil, dead at 24 h (Example 12); type: in vivo, Blattella germanica
Description: as §1

[6] = Table 14, composite data of the replicates
[7] = Table 14, composite data, calculated proportion
[8] = Table 13, per replicate of 10-16 treated cockroaches, mg per insect in the label

CCCCCCCCO [Composition 1-octanol, 1-octanol]
# dead at 24 h [1, 6]: 2
Proportion dead at 24 h [1, 7]: 0.054

CCCCOCCO [2-butoxyethanol]
Proportion dead at 24 h ([1]; Table 13, per replicate): 0.000
# dead at 24 h [1, 8]: 0
# dead at 24 h [1, 6]: 0
Proportion dead at 24 h [1, 7]: 0.000

1-propanol [Composition 1-propanol]
LD10 mg/insect [2]: 0.472 mg/insect
LD50 mg/insect [2]: 0.557 mg/insect
# dead at 24 h ([3]; 0.45 mg): 1
Proportion dead at 24 h ([3]; 0.45 mg): 0.028
synergy with EXXSOL D95 [3]: significant synergy
# dead at 24 h ([1]; Table 13, per replicate of 10-16 treated cockroaches, mg per insect in the label, listed as 1-propanol (0.45 mg)): 1 and 0 (2×)
Proportion dead at 24 h ([1]; Table 13, per replicate, listed as 1-propanol (0.45 mg)): 0.083 and 0.000 (2×)
# dead at 24 h [1, 6]: 1
Proportion dead at 24 h [1, 7]: 0.028

CCCCCCCCCO [Composition 1-nonanol, 1-nonanol]
# dead at 24 h [1, 6]: 1
Proportion dead at 24 h [1, 7]: 0.024

CC(C)(C)O [tertiary butyl alcohol]
# dead at 24 h ([1]; Table 13, per replicate of 10-16 treated cockroaches, mg per insect in the label, listed as t-butyl alcohol (0.5 mg)): 0 (3×) and 2
Proportion dead at 24 h ([1]; Table 13, per replicate, listed as t-butyl alcohol (0.5 mg)): 0.000
# dead at 24 h [1, 6]: 2
Proportion dead at 24 h [1, 7]: 0.045

CCCCCCCCCCO [Composition 1-decanol, 1-decanol]
# dead at 24 h [1, 6]: 1
Proportion dead at 24 h [1, 7]: 0.027

C1COCCO1 [Dioxane (50%), Dioxane]
# dead ([4]; Table 6, per replicate): 0 (4×) and 1
Arcsine square root % dead ([4]; Table 6, per replicate): 0
Proportion dead ([4]; Table 6, per replicate): 0
Square root % dead ([4]; Table 6, per replicate): 0

1-butanol [Composition 1-butanol]
LD10 mg/insect [2]: 0.877 mg/insect
LD50 mg/insect [2]: 1.018 mg/insect
# dead at 24 h ([1]; Table 13, per replicate of 10-16 treated cockroaches, mg per insect in the label, listed as 1-butanol (0.8 mg)): 0 (2×) and 1
Proportion dead at 24 h ([1]; Table 13, per replicate, listed as 1-butanol (0.8 mg)): 0.000 (2×) and 0.100
# dead at 24 h [1, 6]: 1
Proportion dead at 24 h [1, 7]: 0.029

CC(C)O [Isopropyl alcohol]
Proportion dead at 24 h ([1]; Table 13, per replicate): 0.000
# dead at 24 h [1, 8]: 0
# dead at 24 h [1, 6]: 0
Proportion dead at 24 h [1, 7]: 0.000

CC(=O)CC(C)(C)O [Diacetone alcohol]
# dead at 24 h [1, 6]: 1
Proportion dead at 24 h [1, 7]: 0.025

CCCCCCO [Composition 1-hexanol, 1-hexanol]
Proportion dead at 24 h ([1]; Table 13, per replicate): 0.083
# dead at 24 h [1, 8]: 1
# dead at 24 h [1, 6]: 3
Proportion dead at 24 h [1, 7]: 0.083

CC(C)CO [isobutyl alcohol]
# dead at 24 h ([1]; Table 13, per replicate of 10-16 treated cockroaches, mg per insect in the label, listed as isobutyl alcohol (0.50 mg)): 1
Proportion dead at 24 h ([1]; Table 13, per replicate, listed as isobutyl alcohol (0.50 mg)): 0.071
# dead at 24 h [1, 6]: 1
Proportion dead at 24 h [1, 7]: 0.026

CCCCCCCO [Composition 1-heptanol, 1-heptanol]
# dead at 24 h ([3]; 0.40 mg): 1
Proportion dead at 24 h ([3]; 0.40 mg): 0.028
synergy with EXXSOL D95 [3]: significant synergy
# dead at 24 h [1, 6]: 1
Proportion dead at 24 h [1, 7]: 0.028

2-butanol [Composition 2-butanol]
LD10 mg/insect [2]: 0.881 mg/insect
LD50 mg/insect [2]: 1.188 mg/insect
# dead at 24 h ([1]; Table 13, per replicate of 10-16 treated cockroaches, mg per insect in the label, listed as 2-butanol (0.8 mg)): 0 (2×) and 1
Proportion dead at 24 h ([1]; Table 13, per replicate, listed as 2-butanol (0.8 mg)): 0.000 (2×) and 0.083
# dead at 24 h [1, 6]: 1
Proportion dead at 24 h [1, 7]: 0.026

CCO [Ethanol]
# dead at 24 h [1, 6]: 1
Proportion dead at 24 h [1, 7]: 0.027

CO [Methanol]
LD10 mg/insect [2]: Estimated at ~3.000 mg/insect
LD50 mg/insect [2]: >7.00 mg/insect
# dead at 24 h ([1]; Table 13, per replicate of 10-16 treated cockroaches, mg per insect in the label, listed as methanol (3.0 mg)): 0 (2×) and 1
Proportion dead at 24 h ([1]; Table 13, per replicate, listed as methanol (3.0 mg)): 0.000 (2×) and 0.077
# dead at 24 h [1, 6]: 1
Proportion dead at 24 h [1, 7]: 0.026

CCCCCCCCCCCCCCO [1-tetradecanol]
# dead at 24 h ([1]; Table 13, per replicate of 10-16 treated cockroaches, mg per insect in the label, listed as 1-tetradecanol (1.00 mg)): 1 and 2
Proportion dead at 24 h ([1]; Table 13, per replicate, listed as 1-tetradecanol (1.00 mg)): 0.083 and 0.154
# dead at 24 h [1, 6]: 4
Proportion dead at 24 h [1, 7]: 0.108

CCCCCCCCCCCO [Composition 1-undecanol, 1-undecanol]
# dead at 24 h [1, 6]: 4
Proportion dead at 24 h [1, 7]: 0.105

C=C(C)[C@H]1CC=C(C)CC1 [d-limonene (40%), d-limonene]
# dead ([4]; Table 7, per replicate): 1 and 0 and 2 (2×)
Arcsine square root % dead ([4]; Table 7, per replicate): 0
Proportion dead ([4]; Table 7, per replicate): 0
Square root % dead ([4]; Table 7, per replicate): 0

OCCc1ccccc1 [2-phenylethanol]
LD10 mg/insect [2]: 0.075 mg/insect
# dead at 24 h [1, 6]: 5
Proportion dead at 24 h [1, 7]: 0.106

CCCCCCCCCCCCO [Composition 1-dodecanol, 1-dodecanol]
# dead at 24 h [1, 6]: 3
Proportion dead at 24 h [1, 7]: 0.077

Hexanes
# dead at 24 h ([5]; compound alone, 0.80 mg): 1
Proportion dead at 24 hr ([5]; compound alone, 0.80 mg): 0.100

C1CCOC1 [Tetrahydrofuran (109-99-9) (0.80 mg), Tetrahydrofuran]
# dead at 24 h ([5]; Table 17, composite data): 3
Proportion dead at 24 h ([5]; Table 17, composite data, calculated proportion): 0.300
